Data from PMC11032351, “Epigenetic modulation through BET bromodomain inhibitors as a novel therapeutic strategy for progranulin-deficient frontotemporal dementia” (Scientific Reports, 2024).
pKd: −log10 of the molar value.

Target: T1, Recombinant BRD4(BD2) (Homo sapiens, UniProt O60885)
T1 construct: using the recombinant, individually purified bromodomains of BRD4 (GST-tagged BD1 and BD2); purchased Epicypher, Inc 15–0013
Assay: TR-FRET ligand displacement, recombinant GST-BRD4(BD2)
Assay type: binding
Settings: GST-tagged, with 95% confidence interval
Protocol: Unless otherwise noted, experiments were performed in white, 384-well microtiter plates (Corning 3572 or PerkinElmer ProxiPlate-384 Plus) in 30 μL or 10 μL assay volume, respectively. TR-FRET measurements were acquired on a Tecan SPARK plate reader with SPARKCONTROL software version V2.1 (Tecan Group Ltd.), with the following settings: 340/50 nm excitation, 490/10 nm (Tb), 520/10 nm (FITC) emission, 100 μs delay, and 400 μs integration. The 490/10 and 520/10 nm emission channels were acquired with a 50% mirror and a dichroic 510 mirror, respectively, using independently optimized detector gain settings unless specified otherwise. The TR-FRET ratio was taken as the 520/490 nm intensity ratio on a per-well basis.
Assays were performed as described. Recombinant BRD4(BD1) and BRD4(BD2) were purchased from BPS Biosciences, Inc and Epicypher, Inc (GST-BRD4(BD1), 31,040; GST-BRD4(BD2), 15–0013, respectively). Recombinant bromodomains were diluted to 0.5 nM in assay buffer (25 mM HEPES, 150 mM NaCl, 0.5 mg/mL BSA, 0.005% TWEEN-20, pH 7.5) with 2 nM CoraFluor-1-labeled GST VHH (ChromoTek ST-250), then JQ1-FITC was added in serial dilution (cmax = 100 nM) using an HP D300 digital dispenser and allowed to equilibrate for 2 h at room temperature before TR-FRET measurements were taken. Nonspecific signal was determined with 50 μM JQ1-Acid, and data were fitted to a One Site–Specific Binding model in Prism 9. The KD determined from the one-site model was then used in Eq. 1 to adjust for a two-site model due to the dimeric GST protein:1 KD,2-site=KD,1-site×(1+2)
The following assay parameters have been used: (i) 4 nM GST-BRD4(BD1), 4 nM CoraFluor-labeled GST VHH, 20 nM JQ1-FITC in assay buffer, (ii) 4 nM GST-BRD4(BD2), 4 nM CoraFluor-labeled GST VHH, 20 nM JQ1-FITC in assay buffer, (iii) HEK293T or NPC cell lysate at 0.8 mg/mL total protein, 1 nM rabbit anti-BRD4 antibody, 2 nM CoraFluor-labeled anti-rabbit Nano-Secondary, 20 nM JQ1-FITC. For all experiments, test compounds were added in serial dilution (cmax = 10 μM) using an HP D300 digital dispenser and allowed to equilibrate for 2 h at room temperature before TR-FRET measurements were taken. The assay floor (background) was defined with the 10 μM mivebresib dose, and the assay ceiling (top) was defined via a no-inhibitor control. Data were fitted to a four-parameter dose–response model in Prism 9.
For TR-FRET ligand displacement assays with recombinant bromodomains, we have determined the KD of the respective fluorescent tracer (JQ1-FITC) under each assay condition. For endogenous BRD4 in whole cell extract, we have determined the KD,app of JQ1-FITC under each assay condition. Inhibitor KD and KD,app values have been calculated using Cheng-Prusoff principles, outlined in Eq. 2 below:2 KDorKD,app=IC50/1+[S]/KX where IC50 is the measured IC50 value, [S] is the concentration of fluorescent tracer, and KX is the KD or KD,app of the fluorescent tracer for a given condition.

`Cn1ccc2c(-c3cccnc3Sc3ccc(F)cc3)c[nH]c2c1=O` [Compound 84B, 3-(2-((4-fluorophenyl)thio)pyridin-3-yl)-6-methyl-1,6-dihydro-7H-pyrrolo[2,3-c]pyridin-7-one] and `Cn1cc(-c2cccnc2Sc2ccc(F)cc2)c2cc[nH]c2c1=O` [Compound 84A, 4-(2-((4-fluorophenyl)thio)pyridin-3-yl)-6-methyl-1,6-dihydro-7H-pyrrolo[2,3-c]pyridin-7-one] are within 0.2 log units of each other in pKd: 6.88 for the first, 6.70 for the second.

First: Cn1cc(-c2cccnc2Oc2ccc(F)cc2)c2cc[nH]c2c1=O [Compound 18A, 4-(2-(4-fluorophenoxy)pyridin-3-yl)-6-methyl-1H-pyrrolo[2,3-c]pyridin-7(6H)-one]
Second: Cn1ccc2c(-c3cccnc3Oc3ccc(F)cc3)c[nH]c2c1=O [Compound 18B, 3-[2-(4-fluorophenoxy)pyridin-3-yl]-6-methyl-1,6-dihydro-7H-pyrrolo[2,3-c]pyridin-7-one]
The pKd of the first is 0.82 log units higher: 7.62 for the first, 6.80 for the second. The first binds more tightly here.

First: Cn1ccc2c(-c3cccnc3Oc3ccc(F)c(F)c3)c[nH]c2c1=O [Compound 81B, 3-(2-(3,4-difluorophenoxy)pyridin-3-yl)-6-methyl-1,6-dihydro-7H-pyrrolo[2,3-c]pyridin-7-one]
Second: Cn1cc(-c2cccnc2Oc2ccc(F)c(F)c2)c2cc[nH]c2c1=O [Compound 81A, 4-(2-(3,4-difluorophenoxy)pyridin-3-yl)-6-methyl-1,6-dihydro-7H-pyrrolo[2,3-c]pyridin-7-one]
The pKd of the first is 1.04 log units lower: 6.43 for the first, 7.47 for the second.

First: Cn1cc(-c2cccnc2Nc2ccc(F)cc2)c2cc[nH]c2c1=O [Compound 85A, 4-(2-((4-fluorophenyl)amino)pyridin-3-yl)-6-methyl-1,6-dihydro-7H-pyrrolo[2,3-c]pyridin-7-one]
Second: Cn1ccc2c(-c3cccnc3Nc3ccc(F)cc3)c[nH]c2c1=O [Compound 85B, 3-(2-((4-fluorophenyl)amino)pyridin-3-yl)-6-methyl-1,6-dihydro-7H-pyrrolo[2,3-c]pyridin-7-one]
The pKd of the first is 0.82 log units higher: 6.38 for the first, 5.56 for the second.

Going from `Cn1ccc2c(-c3cc(F)cnc3Oc3ccc(F)cc3)c[nH]c2c1=O` [Compound 86B, 3-(5-fluoro-2-(4-fluorophenoxy)pyridin-3-yl)-6-methyl-1,6-dihydro-7H-pyrrolo[2,3-c]pyridin-7-one] to `Cn1cc(-c2cc(F)cnc2Oc2ccc(F)cc2)c2cc[nH]c2c1=O` [Compound 86A, 4-(5-fluoro-2-(4-fluorophenoxy)pyridin-3-yl)-6-methyl-1,6-dihydro-7H-pyrrolo[2,3-c]pyridin-7-one], the pKd rises from 5.43 to 6.49 (1.06 log units). The second binds more tightly here.

Compared with `Cn1cc(-c2cccnc2Oc2cc(F)cc(F)c2)c2cc[nH]c2c1=O` [Compound 82A, 4-(2-(3,5-difluorophenoxy)pyridin-3-yl)-6-methyl-1,6-dihydro-7H-pyrrolo[2,3-c]pyridin-7-one], `Cn1ccc2c(-c3cccnc3Oc3cc(F)cc(F)c3)c[nH]c2c1=O` [Compound 82B, 3-(2-(3,5-difluorophenoxy)pyridin-3-yl)-6-methyl-1,6-dihydro-7H-pyrrolo[2,3-c]pyridin-7-one] is 1.04 log units lower in pKd: 7.52 for the first, 6.48 for the second. The first binds more tightly here.
